These results are taken from ChEMBL document CHEMBL1221261, “Fluorescent retinoid X receptor ligands for fluorescence polarization assay” (Bioorg Med Chem Lett, 2010).

The source made the active and inactive calls. No cut-off for these calls is given here.

Test [1] concerns the target T1, Retinoic acid receptor RXR-alpha (Homo sapiens) (UniProt P19793).
T1 sequence (whole entry): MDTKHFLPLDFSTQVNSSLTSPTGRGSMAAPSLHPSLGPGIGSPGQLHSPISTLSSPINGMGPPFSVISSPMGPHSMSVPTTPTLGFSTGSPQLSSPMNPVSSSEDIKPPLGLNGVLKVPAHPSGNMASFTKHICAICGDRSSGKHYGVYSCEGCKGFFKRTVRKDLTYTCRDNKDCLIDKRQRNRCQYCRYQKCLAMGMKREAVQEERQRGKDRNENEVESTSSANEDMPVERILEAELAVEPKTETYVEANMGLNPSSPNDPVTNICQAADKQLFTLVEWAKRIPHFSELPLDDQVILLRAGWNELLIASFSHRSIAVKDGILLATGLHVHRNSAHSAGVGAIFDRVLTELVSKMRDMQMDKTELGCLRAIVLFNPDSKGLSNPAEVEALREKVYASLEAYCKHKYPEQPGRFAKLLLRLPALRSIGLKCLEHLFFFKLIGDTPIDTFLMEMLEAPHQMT
The test can be described thus: (§1) Agonist activity at human RXRalpha expressed in […] cells by luciferase reporter gene assay. The note with it: COS-7. It counts as functional, cell-based.

In test [2] the target is T2, Retinoic acid receptor RXR-alpha (Homo sapiens, UniProt P19793).
T2 sequence (P19793 whole entry): T1 sequence (whole entry)
The description is as §1. The test is classed as functional, cell-based, COS-7.

In test [3] the target is T1, Retinoic acid receptor RXR-alpha (Homo sapiens). The test can be described thus: Agonist activity at human RXRalpha expressed in […] cells at 1 uM by luciferase reporter gene assay. The test is classed as functional, cell-based. The following applies: COS-7.

`CCN(c1ccc(C(=O)O)cn1)c1ccc2c(C)cc(=O)n(C)c2n1`: the result in test [1] was inactive. `CCN(c1ccc(C(=O)O)cn1)c1ccc2c(C(F)(F)F)cc(=O)n(CC)c2n1` gave a 50% effective concentration (EC50) in test [2] of 1000 nM. As for `CCN(c1ccc(C(=O)O)cn1)c1ccc2c(C(F)(F)F)cc(=O)n(C)c2n1`, the 50% effective concentration (EC50) in test [2] amounted to 1000 nM.

For `CCN(c1ccc(C(=O)O)cn1)c1ccc2c(C(F)(F)F)cc(=O)n(CC(C)C)c2n1`, in test [3], the result was Active. The compound further came in with a 50% effective concentration (EC50) in test [2] of 1000 nM.
